In ChEMBL document CHEMBL3046283, “The simple synthesis and antimicrobial activity of novel fluoroquinolone derivatives from natural amino acid salts” (2012):
Structures can show the parent of a compound that is named as a salt. The source made the active and inactive calls. The rule behind the calls is not given here.

Key:
Bacillus subtilis [1] = assay: Antibacterial activity against Bacillus subtilis at 1 mg/ml after 24 hr by […]; type: functional; conditions: read-out: DIZ
Candida albicans = assay: Antifungal activity against Candida albicans at 0.1 to 1 mg/ml after 24 hr by […]; type: functional, organism-based
Aspergillus fumigatus [2] = assay: Antifungal activity against Aspergillus fumigatus at 0.1 mg/ml after 24 hr by […]; type: functional, organism-based
Aspergillus fumigatus [3] = assay: Antifungal activity against Aspergillus fumigatus at 0.2 mg/ml after 24 hr by […]; type: functional
Aspergillus fumigatus [4] = assay: Antifungal activity against Aspergillus fumigatus at 1 mg/ml after 24 hr by […]; type: functional; conditions: for zone of inhibition at 1000 µg/mL: read-out: DIZ
Staphylococcus aureus [5] = assay: Antibacterial activity against Staphylococcus aureus at 0.1 mg/ml after 24 hr by […]; type: functional
Staphylococcus aureus [6] = assay: Antibacterial activity against Staphylococcus aureus at 0.2 mg/ml after 24 hr by […]; type: functional
Staphylococcus aureus [7] = assay: Antibacterial activity against Staphylococcus aureus at 1 mg/ml after 24 hr by […]; type: functional; conditions: for zone of inhibition at 1000 µg/mL: read-out: DIZ
Bacillus subtilis [8] = assay: Antibacterial activity against Bacillus subtilis at 0.1 mg/ml after 24 hr by […]; type: functional; conditions: for zone of inhibition at 100 µg/mL: read-out: DIZ
Bacillus subtilis [9] = assay: Antibacterial activity against Bacillus subtilis at 0.2 mg/ml after 24 hr by […]; type: functional; conditions: read-out: DIZ

Row | Compound | zone of inhibition at 1000 µg/mL (Bacillus subtilis [1]) | diameter of the inhibition zone (DIZ) (Candida albicans) | diameter of the inhibition zone (DIZ) (Aspergillus fumigatus [2]) | diameter of the inhibition zone (DIZ) (Aspergillus fumigatus [3]) | diameter of the inhibition zone (DIZ) (Aspergillus fumigatus [4]) | diameter of the inhibition zone (DIZ) (Staphylococcus aureus [5]) | diameter of the inhibition zone (DIZ) (Staphylococcus aureus [6]) | zone of inhibition at 1000 µg/mL (Staphylococcus aureus [7]) | diameter of the inhibition zone (DIZ) (Bacillus subtilis [8]) | zone of inhibition at 200 µg/mL (Bacillus subtilis [9]) | zone of inhibition at 100 µg/mL (Staphylococcus aureus [5]; read-out: DIZ) | zone of inhibition at 200 µg/mL (Staphylococcus aureus [6]; read-out: DIZ) | zone of inhibition at 100 µg/mL (Bacillus subtilis [8]) | zone of inhibition at 1000 µg/mL (Aspergillus fumigatus [4]) | diameter of the inhibition zone (DIZ) (Staphylococcus aureus [7]) | zone of inhibition at 200 µg/mL (Aspergillus fumigatus [3]; read-out: DIZ)
1 | CC(C)CC(C(=O)O)n1cc(C(=O)O)c(=O)c2cc(F)c(N3CCN(C)CC3)c(F)c21 (stereo not given) | 1.15 mm | inactive | inactive | inactive | inactive | inactive | inactive | 0.6 mm | inactive | 0.95 mm | – | – | – | – | – | –
2 | C[C@H]1COc2c(N3CCN(C)CC3)c(F)cc3c(=O)c(C(=O)O)cn1c23 [LEVOFLOXACIN HYDROCHLORIDE] | 4.6 mm | inactive | inactive | inactive | inactive | – | – | 3.3 mm | – | 3.8 mm | 2.6 mm | 2.9 mm | 3.6 mm | – | – | –
3 | CCC(C)C(C(=O)O)n1cc(C(=O)O)c(=O)c2cc(F)c(N3CCN(C)CC3)c(F)c21 (stereo not given) | 1.2 mm | inactive | inactive | inactive | inactive | inactive | inactive | 0.6 mm | – | 1.15 mm | – | – | 0.6 mm | – | – | –
4 | CN1CCN(c2c(F)cc3c(=O)c(C(=O)O)cn(C(C(=O)O)c4ccccc4)c3c2F)CC1 (stereo not given) | 1.05 mm | inactive | inactive | inactive | – | inactive | inactive | 0.6 mm | – | 0.9 mm | – | – | 0.6 mm | 0.6 mm | – | –
5 | CC(C)C(C(=O)O)n1cc(C(=O)O)c(=O)c2cc(F)c(N3CCN(C)CC3)c(F)c21 (stereo not given) | 1 mm | inactive | inactive | inactive | inactive | inactive | inactive | – | inactive | 0.7 mm | – | – | – | – | inactive | –
6 | CN1CCN(c2c(F)cc3c(=O)c(C(=O)O)cn(CC(=O)O)c3c2F)CC1 | 1.1 mm | inactive | inactive | – | – | inactive | inactive | 0.7 mm | – | 0.9 mm | – | – | 0.65 mm | 1 mm | – | 0.6 mm
7 | CN1CCN(c2c(F)cc3c(=O)c(C(=O)O)cn(C(Cc4ccccc4)C(=O)O)c3c2F)CC1 (stereo not given) | 1.2 mm | inactive | inactive | inactive | – | inactive | inactive | 0.8 mm | inactive | 0.95 mm | – | – | – | 0.75 mm | – | –
